Source: ChEMBL document CHEMBL1130495, “Benzoylphenoxy analogs of isoprenoid diphosphates as photoactivatable substrates for bacterial prenyltransferases” (Bioorg Med Chem Lett, 1997)

How the values were obtained:
[1] = Activity as substrate for FPS relative to control; assay type: functional
[2] = test system: Farnesyl pyrophosphate synthase (Geobacillus stearothermophilus); assay: Percent inhibition against prenyltransferases of farnesyl diphosphate synthase (FPS) at concentration of 250 uM
[3] = Activity at concentration of 125 uM relative to HexPS for 15 min; assay type: functional
[4] = Activity at concentration of 250 uM relative to HexPS for 5 min; assay type: functional
[5] = Activity as substrate for Hex PS relative to control; assay type: functional
[6] = Activity at concentration of 125 uM relative to HexPS for 5 min; assay type: functional
Micrococcus luteus [7] = assay: Percent inhibition against prenyltransferases of hexaprenyl diphosphate synthase (Hex PS) at concentration of 50 uM
[8] = Activity at concentration of 357 uM relative to FPS for 120 min; assay type: functional
Micrococcus luteus [9] = assay: Percent inhibition against prenyltransferases of hexaprenyl diphosphate synthase (Hex PS) at concentration of 125 uM
[10] = Activity as substrate for UPS relative to control; assay type: functional
[11] = Activity at concentration of 1428 uM relative to FPS for 30 min; assay type: functional
[12] = test system: Geobacillus stearothermophilus; assay: Percent inhibition against prenyltransferases of Undecaprenyl pyrophosphate synthetase (UPS) at concentration of 16 uM
[13] = Activity at concentration of 357 uM relative to FPS for 60 min; assay type: functional
[14] = test system: Farnesyl pyrophosphate synthase (Geobacillus stearothermophilus); assay: Percent inhibition against prenyltransferases of farnesyl diphosphate synthase (FPS) at concentration of 50 uM
[15] = test system: Geobacillus stearothermophilus; assay: Percent inhibition against prenyltransferases of Undecaprenyl pyrophosphate synthetase (UPS) at concentration of 32 uM
[16] = Activity at concentration of 714 uM relative to FPS for 30 min; assay type: functional
[17] = Activity at concentration of 250 uM relative to HexPS for 15 min; assay type: functional
[18] = test system: Geobacillus stearothermophilus; assay: Percent inhibition against prenyltransferases of Undecaprenyl pyrophosphate synthetase (UPS) at concentration of 125 uM
[19] = Activity at concentration of 357 uM relative to FPS for 30 min; assay type: functional
Micrococcus luteus [20] = assay: Percent inhibition against prenyltransferases of hexaprenyl diphosphate synthase (Hex PS) at concentration of 250 uM
[21] = test system: Farnesyl pyrophosphate synthase (Geobacillus stearothermophilus); assay: Percent inhibition against prenyltransferases of farnesyl diphosphate synthase (FPS) at concentration of 125 uM
[22] = test system: Farnesyl pyrophosphate synthase (Geobacillus stearothermophilus); assay: Percent inhibition against farnesyl diphosphate synthase (FPS) at concentration of 250 uM

Row | SMILES | Relative activity [1] | inhibition [2] | Relative activity [3] | Relative activity [4] | Relative activity [5] | Relative activity [6] | inhibition (Micrococcus luteus [7]) | Relative activity [8] | inhibition (Micrococcus luteus [9]) | Relative activity [10] | Relative activity [11] | inhibition [12] | Relative activity [13] | inhibition [14] | inhibition [15] | Relative activity [16] | Relative activity [17] | inhibition [18] | inhibition (Micrococcus luteus [20]) | inhibition [21] | other results
1 | C/C(=C\COP(=O)(O)OP(=O)(O)O)CC/C=C(\C)COc1cccc(C(=O)c2ccccc2)c1 | 1.83 | 96.1% | 10.8 | 5.5 | 21.6 | 32.5 | 9.2% | 37 | 37% | 55.7 | 75.9 | 38% | 66.6 | 86% | 58% | 61.2 | 1.9 | 63% | 80.5% | 94.9% | Relative activity [19]: 62.2
2 | C/C(=C\COP(=O)(O)OP(=O)(O)O)COc1cccc(C(=O)c2ccccc2)c1 | 0.22 |  |  |  | 0 |  | 3.1% |  | 3.5% |  |  | 12.5% |  |  | 22.5% |  |  | 68% | 10.6% | 14.6% | inhibition [22]: 19.8%
3 | C/C(=C\COP(=O)(O)OP(=O)(O)O)COc1ccc(C(=O)c2ccccc2)cc1 | 0.06 | 27.6% |  |  | 5.7 |  | 8.8% |  | 23.4% |  |  | 12.5% |  |  | 17.5% |  |  | 57% | 37% | 24.5% | 
4 | C/C(=C\COP(=O)(O)OP(=O)(O)O)CC/C=C(\C)COc1ccc(C(=O)c2ccccc2)cc1 | 0.78 | 95.5% | 9.2 | 9.8 | 46.4 | 30.7 | 14.4% | 17 | 49.5% | 49.1 | 36.2 | 29% | 48.1 | 84.4% | 53% | 64.4 | 4.3 | 63% | 86.4% | 94.4% | Relative activity [19]: 67.3
